Measured values from US20260285817A1, “CRYSTALLINE FORMS OF A 1H-1,2,3-TRIAZOLE-4-CARBOXYLIC ACID COMPOUND” (CANTERO THERAPEUTICS, INC., priority 2023, published 2026).
“Also recorded” adds a separate entry of the source. Read-outs that look alike come from different tables or passages of the source.

Experiments:
[1] = Critical water activity study, competitive slurry in THF/H2O at rt, XRPD
Experimental: Critical water activity (aw) study was performed for mono-sodium salt Form A (monohydrate), Form E (hemihydrate) and Form D (anhydrate) to investigate the form relationship. It was conducted via competitive slurry in THF/H2O with a series of aw (0~1) at rt. Specifically, ~10 mg staring material was suspended in 0.4 mL THF/H2O (aw of 0, 0.2, 0.4, 0.6, 0.8 and 1.0) at rt. After equilibrium for 2 hrs, collect the filtrates to the HPLC vials containing Form A and Form D with equivalent mass ratio. After stirring magnetically at rt for 1~2 days, collect the solids for XRPD analysis.

[2] = Solubility in 20% EtOH in water and 20% DMAc in water at room temperature; format: physicochemical; conditions: organic solvent or mixture, 20~60 mins
Experimental: (§1) High Performance Liquid Chromatography (HPLC): HPLC of Agilent 1260 with DAD detector was employed to detect the purity and solubility, with the methods shown in Table 1.
Solubility in Various Solvents: Solubility of Form A was also measured in 20% EtOH in water and 20% DMAc in water at room temperature (rt). Specifically, about 3 mg Form A sample was added to 0.6 mL solvent.

[3] = Solubility in water at various temperatures; format: physicochemical; conditions: for Final Form: XRPD
Experimental: as §1
Solubility in Water at various Temperature: Solubility test was conducted for Form A in water at various temperatures. Specifically, about 3~5 mg Form A sample was added to 1 mL water. After stirring at 750 rpm at desired temperatures (25/35/50/60/70° C.) for 1~2 hrs, solids were isolated for XRPD to check the crystal form and the supernatants were collected for a HPLC analysis to detect the solubility.

[4] = Dynamic vapor sorption (DVS) hygroscopicity of Form A; format: physicochemical
Experimental: In some embodiments, the crystalline form described herein is further characterized by a dynamic vapor sorption (DVS). In some embodiments, the DVS is recorded using a sample weight of a few milligrams (e.g., about 20 mg) on an ADVENTURE series DVS at 25° C. under nitrogen. In some embodiments, the sample is subjected to the cycle as follows: 1) ambient relative humidity (RH) to 90% RH at a rate of 10% RH and from 90% RH to 95% RH in a rate of 5% RH; 2) 95% RH to 90% RH at a rate of 5% RH and 90% RH to 0% RH at a rate of 10% RH; and 3) 0% RH to 90% RH at a rate of 10% RH and 90% RH to 95% RH in a rate of 5% RH.
Dynamic Vapor Sorption (DVS): Dynamic vapor sorption was performed with an ADVENTURE series DVS at 25° C. under nitrogen blow. Approximately 20 milligrams of material was used. Samples were analyzed using method below: • 1. Ambient relative humidity to 95% RH at 10% RH (5% from 90% RH to 95% RH) • 2. 95% RH to 0% RH at 10% RH (5% RH from 95% RH to 90% RH) • 3. 0% RH to 95% RH at 10% RH (5% RH from 90% RH to 95% RH)
To understand the hygroscopicity of Form A, dynamic vapor sorption (DVS) was employed to measure the mass change as a function of relative humidity at 25° C. Form A was equilibrated at ambient relative humidity before analysis.

[5] = 24-hr pH solubility and form stability in six pH buffers at 25° C.; format: physicochemical; conditions: for solubility at 24 h: aqueous buffer
Experimental: as §1
After shaking at 100 rpm at 25° C. for 24 hrs, the suspensions were centrifuged. The solids were analyzed by XRPD for crystal form, and the filtrates of supernatants were analyzed by HPLC for solubility and by pH meter for pH value.

Q: For O=C([O-])c1nn[nH]c1Oc1ccc(-c2ccc(C3CC(F)(F)C3)cc2)cc1.[Na+], which relative form stability ([1]; THF/H2O, aw of 0~0.8, rt) is on record?
A: Its relative form stability is “more stable than monohydrate Form A and anhydrate Form D”.

Q: Which results are given for O.O=C([O-])c1nn[nH]c1Oc1ccc(-c2ccc(C3CC(F)(F)C3)cc2)cc1.[Na+] [Form A, sodium 5-((4′-(3,3-difluorocyclobutyl)-[1,1′-biphenyl]-4-yl)oxy)-1H-1,2,3-triazole-4-carboxylate monohydrate]?
A: solubility ([2]; 20% DMAc in water): 3300 µg/mL; solubility ([2]; 20% EtOH in water): 1900 µg/mL; relative form stability ([1]; water, aw of 1.0, rt): more stable than Form D; solubility ([3]; 25~70° C., read-out: solubility as a function of temperature): 1100 to 2300 µg/mL; solubility ([3]; 25° C., 1~2 hrs, read-out: Solubility): 1100 µg/mL; Final Form ([3]; 25° C.): Forms A + C; solubility ([3]; 35° C., 1~2 hrs, read-out: Solubility): 1300 µg/mL; solubility ([3]; 50° C., 1~2 hrs, read-out: Solubility): 1940 µg/mL; solubility ([3]; 60° C., 1~2 hrs, read-out: Solubility): 1860 µg/mL; Final Form ([3]; 60° C.): Forms A + C; solubility ([3]; 70° C., 1~2 hrs, read-out: Solubility): 2320 µg/mL; form transformation in water ([3]; various temperatures): partial conversion to Form C; water uptake ([4]; 25° C./80% RH compared to starting point (60% RH)): negligible water uptake; weight gain, DVS cycle ([4]; 60% RH to 80% RH, 25° C.): less than 0.03%; weight loss, first dynamic vapor desorption cycle ([4]; 80% RH to 60% RH, 25° C.): less than 0.03%; hygroscopicity ([4]; DVS, 25° C., monohydrate): non-hygroscopic; also recorded: non-hygroscopicity; form stability under humidity ([4]; broad humidity range, DVS 25° C.): good form stability; water lost ([4]; relative humidity below 10% RH, 25° C.): ~ 0.6%; solubility at 24 h ([5]; pH 7.0 buffer, 25° C., read-out: Solubility): 55 µg/mL; solubility at 24 h ([5]; pH 8.0 buffer, 25° C., read-out: Solubility): 404 µg/mL; solubility at 24 h ([5]; pH 10.0 buffer, 25° C., read-out: Solubility): 4830 µg/mL; solubility ([5]; pH 2.0/4.0/6.0, 25° C.): limited solubility; Final pH (measured) ([5]; pH 2.0 buffer, 25° C.): pH 2.5; solubility ([5]; pH 2.0 buffer, 25° C.): <LOD; Form Change ([5]; pH 2.0 buffer, 25° C., XRPD of solids): Yes; Form Change ([5]; pH 2.0~7.0, 25° C.): new diffractive peaks; Final pH (measured) ([5]; pH 4.0 buffer, 25° C.): pH 4.4; solubility ([5]; pH 4.0 buffer, 25° C.): <LOD; Form Change ([5]; pH 4.0 buffer, 25° C., XRPD of solids): Yes; Final pH (measured) ([5]; pH 6.0 buffer, 25° C.): pH 6.2; solubility ([5]; pH 6.0 buffer, 25° C.): <LOD; Form Change ([5]; pH 6.0 buffer, 25° C., XRPD of solids): Yes; Final pH (measured) ([5]; pH 7.0 buffer, 25° C.): pH 7.1; Form Change ([5]; pH 7.0 buffer, 25° C., XRPD of solids): Yes; Form Change ([5]; pH 8.0/10.0, 25° C.): no form change; Final pH (measured) ([5]; pH 8.0 buffer, 25° C.): pH 7.4; Form Change ([5]; pH 8.0 buffer, 25° C., XRPD of solids): No; Final pH (measured) ([5]; pH 10.0 buffer, 25° C.): pH 8.4; Form Change ([5]; pH 10.0 buffer, 25° C., XRPD of solids): No; solubility at 24 h ([5]; ph buffer, pH 2.0~10.0, 25° C., read-out: solubility as a function of pH): < 4800 µg/mL
